The values below are quoted from earlier work in patent publication US20040142388A1, “Method for detecting chronic dementia diseases, and corresponding VGF peptides and detection reagents” (priority 2001, published 2004).

The test system of this data set is PC12 cell line. The following applies: rat pheochomozytome cell line (PC12), stimulation with nerve growth factor.

As to “NGF: important growth factor which regulates the differentiation of the peripheral and central nervous system”, the “increase in the concentration of VGF” value was 12- to 14 fold.
